Where two headings read alike, the source gives them in different places.
What was measured:
[1] = Stability test of the crystal of the compound represented by Formula I; type: physicochemical
Text: Samples were taken on day 5 or day 10 and tested, respectively, and the results were compared with the initial results.

[2] = Pharmacokinetics in Beagle dogs; type: in vivo; details: plasma, 2 mg/kg (in free form); for MRT last: read-out: MRT(0−t); for bioavailability: relative to the compound represented by Formula I, read-out: Relative F %
Procedure: Male Beagle dogs were fasted for about 12 h prior to administration and had free access to water. The dogs were also fasted for 4 hours after administration. Blood samples (0.8 mL) were taken from the forelimb vein of the subject Beagle dogs at 0.25, 0.5, 1, 2, 4, 6, 8, 10, 24, 30, 48, and 72 h after administration. The samples were then placed in EDTA-K2 centrifuge tubes, stored at 4° C., and centrifuged for 10 min at a speed of 4000 rpm at 4° C. within 0.5 h after blood collection to separate plasma. The plasma was stored at […] within 1 h after collecting all the plasma.
300 μL of a solution of an internal standard substance in methanol was added to 50 μL of the plasma sample to be tested and a standard curve sample, respectively. The resulting mixture was mixed uniformly by shaking for 5 min, and centrifuged for 10 min at a speed of 13000 rpm. Then 80 μL of supernatant was taken, and 5 μL of the supernatant was pipetted for LC/MS/MS determination, and the chromatogram was recorded.

[3] = High Humidity (RH92.5%, 25° C.), Day 5
[4] = High Humidity (RH92.5%, 25° C.), Day 10
[5] = Light Irradiation (6000 lux), Day 5
[6] = Light Irradiation (6000 lux), Day 10
[7] = male, Beagle, dog, po, 2 mg/kg, crystalline form
[8] = male Beagle dogs, crystalline form
[9] = male, Beagle, dog, oral, 2 mg/kg, crystalline form

CS(=O)(=O)c1ccc2c(c1)CN([C@H]1CO[C@H](c3cc(F)ccc3F)[C@@H](N)C1)C2 [(2R,3S,5R)-5-(5-methanesulfonylisoindolin-2-yl)-2-(2,5-difluorophenyl)tetrahydro-2H-pyran-3-amine]
Content (%) ([1]; 40° C., Day 5): 99.6% | Total impurity (%) ([1]; 40° C., Day 5): 0.31% | Content (%) ([1]; 40° C., Day 10): 99.6% | Total impurity (%) ([1]; 40° C., Day 10): 0.37% | Content (%) ([1]; 60° C., Day 5): 100.2% | Total impurity (%) ([1]; 60° C., Day 5): 0.30% | Content (%) ([1]; 60° C., Day 10): 99.4% | Total impurity (%) ([1]; 60° C., Day 10): 0.33% | Content (%) ([1]; Day 0): 99.1% | Total impurity (%) ([1]; Day 0): 0.39% | Content (%) [1, 3]: 100.3% | Total impurity (%) [1, 3]: 0.27% | Content (%) [1, 4]: 99.9% | Total impurity (%) [1, 4]: 0.32% | Content (%) [1, 5]: 99.5% | Total impurity (%) [1, 5]: 0.33% | Content (%) [1, 6]: 99.3% | Total impurity (%) [1, 6]: 0.44% | Appearance ([1]; all conditions and days (Day 0, 40° C., 60° C., high humidity, light irradiation)): Off-white powdered solid

CS(=O)(=O)c1ccc2c(c1)CN([C@H]1CO[C@H](c3cc(F)ccc3F)[C@@H](N)C1)C2 [The compound represented by Formula I, (2R,3S,5R)-5-(5-methanesulfonylisoindolin-2-yl)-2-(2,5-difluorophenyl)tetrahydro-2H-pyran-3-amine]
AUC(0-inf) [2, 7]: 15800 ng·h/mL | AUC(0-t) [2, 7]: 15200 ng·h/mL | half-life [2, 7]: 16.4 h | Cmax ([2]; male, Beagle, dog, po, 2 mg/kg, crystalline form, read-out: Cmax): 926 ng/mL | MRT last [2, 7]: 20.6 h | Tmax ([2]; male, Beagle, dog, po, 2 mg/kg, crystalline form, read-out: Tmax): 6 h | bioavailability ([2]; male, Beagle, dog, po, 2 mg/kg): 100%

CS(=O)(=O)c1ccc2c(c1)CN([C@H]1CO[C@H](c3cc(F)ccc3F)[C@@H](N)C1)C2 [The phosphate of the compound represented by Formula I] [Phosphate of (2R,3S,5R)-5-(5-methanesulfonylisoindolin-2-yl)-2-(2,5-difluorophenyl)tetrahydro-2H-pyran-3-amine]
AUC(0−t) [2, 8]: 22746 ng·h/mL | AUC(0−∞) [2, 8]: 23508 ng·h/mL | Cmax [2, 8]: 1746 ng/mL | MRT(0−t) [2, 8]: 17.9 h | Tmax [2, 8]: 0.67 h | t1/2 [2, 8]: 16.9 h

CS(=O)(=O)c1ccc2c(c1)CN([C@H]1CO[C@H](c3cc(F)ccc3F)[C@@H](N)C1)C2 [fumarate of (2R,3S,5R)-5-(5-methanesulfonylisoindolin-2-yl)-2-(2,5-difluorophenyl)tetrahydro-2H-pyran-3-amine]
AUC(0-inf) [2, 9]: 20300 ng·h/mL | AUC(0-t) [2, 9]: 19500 ng·h/mL | half-life [2, 9]: 16.6 h | Cmax ([2]; male, Beagle, dog, oral, 2 mg/kg, crystalline form, read-out: Cmax): 1220 ng/mL | MRT last [2, 9]: 20.3 h | Tmax ([2]; male, Beagle, dog, oral, 2 mg/kg, crystalline form, read-out: Tmax): 0.75 h | bioavailability ([2]; male, Beagle, dog, oral, 2 mg/kg): 152%

Source: patent publication US10822319B2, “Crystal of DPP-IV long-acting inhibitor and salt” (priority 2016, dated 2020)
